Here are results for 6 compounds from patent US7812034B2, “Method of using protease inhibitors for the treatment of liposarcomas” (City of Hope, priority 2003, dated 2010).

The test system of one data set is SW872 liposarcoma cells. Description: Clonogenic assay, SW872 liposarcoma cells. The class given is cell-based, human. The note with it: for concentration that inhibits SW872 liposarcoma clonogenicity (colony growth): 4 hours treatment, 2000 cells plated, colonies scored at 7-10 days, FIG. 1. As to the method: The experimental conditions were intended to bracket these clinically relevant concentrations.
Two thousand treated cells were plated into 60 mm tissue culture plates in triplicate, and colonies (≧40 cells/colony) were scored at 7-10 days with the Eagle Eye II gel documentation system (Stratagene, La Jolla, Calif.). FIG. 1 summarizes the mean and standard deviation of the triplicate colony counts for each experimental condition. […] Ritonavir inhibits colony growth if administered in a concentration of at least 10 μM.
(§1) One thousand treated cells were plated in triplicate in this instance, and colonies were similarly scored.

The conditions of data set [1]: humans, cited from earlier work; for Cmax: recommended dose and regimen, read-out: maximum plasma concentration (Cmax).
Data set [2] deals with differentiated adipocytes. Conditions: incubation for 48 hours; cited from earlier work.
The test system of the next data set is pre-adipocytes. Conditions: incubation for 48 hours; cited from earlier work.
Data set [3] concerns advanced soft tissue sarcomas. The note with it: patients; cited from earlier work.
For data set [4] the following is noted: cited from earlier work.
The subject of data set [5] is SREBP-1. In words: Western blot of SREBP-1 protein in S2 cells. The class given is cell-based, human. The note with it: 10 μM, FIG. 4. The text has this:
In order to influence transcription, the NH2-terminal domain of SREBP-1 must be proteolytically released from the membrane to enter the nucleus (68 kDa).

For data set [6] the following is noted: cited from earlier work. The source holds these as a separate data set.
Data set [7] has as its system SREBP-1. Description: SREBP-1 protein levels in SW872 cells. The class given is cell-based, human. Here is the method: In order to influence transcription, the NH2-terminal domain of SREBP-1 must be proteolytically released from the membrane to enter the nucleus (68 kDa). […] Alterations in both SREBP-1 and PPARγ levels have been proposed as the mechanisms underlying of HIV protease-induced lipodystrophy (15-18, 21). To determine whether a similar mechanism is responsible for the observation of nelfinavir-mediated inhibition of liposarcoma clonogenicity, whole cell extracts are prepared from control and nelfinavir-treated SW872 cells for SDS-PAGE electrophoresis. After transfer to polyvinylidene fluoride membranes, the extracts are probed with rabbit polyclonal antibodies to SREBP-1 and PPARγ (Santa Cruz Biotechnology, Santa Cruz, Calif.). Protein detection is performed by ECL using commercially available reagents as per the manufacturer's instructions (Applied Biosystems, Foster City, Calif.). To control for protein-loading, the membranes are stripped and reprobed with antibody to β-actin (Santa Cruz Biotechnology).

The subject of data set [8] is human HT1080 fibrosarcoma cells. In words: Clonogenic assay, HT1080 fibrosarcoma cells. The data set is classed as cell-based. Conditions: increasing concentrations, 1000 cells plated, FIG. 2. As to the method: as §1
Another data set has as its system S2 liposarcoma cell line. In words: Clonogenic assay, S2 high-grade liposarcoma cells. The data set is classed as cell-based, human. The note with it: 2.5, 10, 20 μM, 4 hours, FIG. 3. As to the method: A second high-grade liposarcoma cell line, S2 (a kind gift from Dr. Wei Wen, City of Hope Medical Center), was tested for protease inhibitor (PI) therapy for liposarcoma. The purpose of the experiment was to determine whether nelfinavir-mediated inhibition of liposarcoma clonogenicity could be reproduced in S2 cells. As with the SW872 experiment, S2 cells […], indinavir, ritonavir, and saquinavir. […] Colonies (≧40 cells/colony) were scored at 7-10 days with the Eagle Eye II gel documentation system (Stratagene, La Jolla, Calif.). FIG. 3 summarizes the mean and standard deviation of the triplicate colony counts for each experimental condition.

For data set [9], the system named is human 293 embryonic kidney cells. In words: Clonogenic assay, 293 embryonic kidney cells. The data set is classed as cell-based. The note with it: increasing concentrations, 1000 cells plated, FIG. 2. As to the method: as §1
The test system of data set [10] is intermediate to high-grade liposarcoma. Conditions: patients with liposarcoma; cited from earlier work.

Molecules are shown by their SMILES. Where two headings read alike, the source gives them in different places.

`CC(C)c1nc(CN(C)C(=O)N[C@H](C(=O)N[C@@H](Cc2ccccc2)C[C@H](O)[C@H](Cc2ccccc2)NC(=O)OCc2cncs2)C(C)C)cs1` [ritonavir]: the “concentration that inhibits SW872 liposarcoma clonogenicity (colony growth)” value with SW872 liposarcoma cells is reported as “at least 10 μM”. For the same compound, the Cmax in [1] was 15.5 µM. Further, the “apoptosis in differentiated adipocytes” value in [2] is recorded as “induced apoptosis”. For the same compound, the apoptosis in pre-adipocytes result in the data set with pre-adipocytes is recorded as “not in pre-adipocytes”.

On to `COc1cccc2c1C(=O)c1c(O)c3c(c(O)c1C2=O)C[C@@](O)(C(=O)CO)C[C@@H]3O[C@H]1C[C@H](N)[C@H](O)[C@H](C)O1` [doxorubicin], for which, in data set [3], the response rate result was “about 25%”.

As for `CC(C)(C)NC(=O)[C@@H]1CN(Cc2cccnc2)CCN1C[C@@H](O)C[C@@H](Cc1ccccc1)C(=O)N[C@H]1c2ccccc2C[C@H]1O` [indinavir], the Cmax in [1] is 12.5 µM.

As to `CC(C)(C)NC(=O)[C@@H]1C[C@@H]2CCCC[C@@H]2CN1C[C@@H](O)[C@H](Cc1ccccc1)NC(=O)[C@H](CC(N)=O)NC(=O)c1ccc2ccccc2n1` [saquinavir], in data set [1], the Cmax is 3.67 µM. Moreover, the “apoptosis in differentiated adipocytes” value in [2] is recorded as “induced apoptosis”. The apoptosis in pre-adipocytes entry with pre-adipocytes is recorded as “not in pre-adipocytes”.

`Cc1c(O)cccc1C(=O)N[C@@H](CSc1ccccc1)[C@H](O)CN1C[C@H]2CCCC[C@H]2C[C@H]1C(=O)NC(C)(C)C` [nelfinavir]: the values for the oral bioavailability in data set [4] (fed rats) and in data set [1] (administered with food) were 43% and 70-80%, respectively. Moreover, in data set [4] (rat, daily gavage 50 mg/kg in 5% dextrose or propylene glycol-water), the “plasma Cmax” value was 1340 to 1650 ng/mL. The Cmax was 2.33 to 2.87 µM in data set [4] (rat, daily gavage 50 mg/kg in 5% dextrose or propylene glycol-water, read-out: plasma Cmax) and 6.97 µM in [1]. Besides, the “time plasma levels were maintained after dosing” value in data set [4] (rat, oral 50 mg/kg) is “up to 7 hours”. For the same compound, the “SREBP-1 protein (nuclear active and precursor forms)” value in the data set on SREBP-1 [5] is “upregulated in a time-dependent fashion”. Also, the “concentration that inhibits SW872 liposarcoma clonogenicity (colony growth)” value in the data set on SW872 liposarcoma cells was no less than 2.5 µM. The “colonies in the SW872 cell line” value with SW872 liposarcoma cells (nelfinavir 20 μM, 1000 cells plated, FIG. 2) is reported as “marked reduction in colonies”. Besides, the water solubility result in data set [6] is listed as “water-soluble”. In addition, the “expression of SREBP-1” value in the data set with SREBP-1 [7] is given as “upregulates expression of SREBP-1”. Also, the “fibrosarcoma (HT1080) clonogenicity” value in [8] is on record as “minimally affecting”. Moreover, the “clonogenicity in the S2 liposarcoma cell line” value with S2 liposarcoma cell line is on record as “inhibits clonogenicity”. In addition, in data set [2], the “apoptosis in differentiated adipocytes” value was “induced apoptosis”. In addition, the “embryonic kidney (293) clonogenicity” value in data set [9] is recorded as “minimally affecting”. Moreover, the apoptosis in pre-adipocytes result in the data set on pre-adipocytes was “not in pre-adipocytes”.

For `Cc1c(C)c2c(c(C)c1O)CCC(C)(COc1ccc(CC3SC(=O)NC3=O)cc1)O2` (centres unmarked) [troglitazone], the toxicity of therapy entry in [10] is “negligible”.
